Consider six molecules from patent US9074014B2 (Ipsen Pharma S.A.S., priority 2008, dated 2015).

Each structure is given as a SMILES string.

The nature of data set [1]: Human plasma half-life assay. It is filed as in vitro ADME. The settings on record: human plasma, 37° C., LC-MS; read-out: Human Plasma T½ (converted).
Data set [2] can be described thus: Rat plasma half-life assay. It is filed as in vitro ADME. The settings on record: rat plasma, 37° C., LC-MS; read-out: Rat Plasma T½ (converted).

As to `CCCC[C@H](NC(=O)C(C)(C)NC(=O)[C@@H](NC(=O)[C@H](CO)NC(=O)[C@H](Cc1ccc(O)cc1)NC(=O)[C@H](CC(=O)O)NC(=O)[C@H](CO)NC(=O)[C@@H](NC(=O)[C@H](Cc1ccccc1)NC(=O)[C@@H](NC(=O)CNC(=O)[C@@H]1Cc2ccccc2CN1C(=O)[C@H](C)NC(=O)[C@@H](N)Cc1ccc(O)cc1)[C@@H](C)O)[C@@H](C)CC)[C@@H](C)CC)C(=O)N[C@@H](CC(=O)O)C(=O)N[C@@H](CCCCN)C(=O)N[C@H](C(=O)N[C@@H](Cc1c[nH]cn1)C(=O)N[C@@H](CCC(N)=O)C(=O)N[C@@H](CCC(N)=O)C(=O)N[C@@H](CC(=O)O)C(=O)N[C@@H](Cc1ccccc1)C(=O)N[C@H](C(=O)N[C@@H](CC(N)=O)C(=O)N[C@@H](Cc1c[nH]c2ccccc12)C(=O)N[C@@H](CC(C)C)C(=O)N[C@@H](CC(C)C)C(=O)N[C@@H](C)C(=O)N[C@@H](CCC(N)=O)C(=O)N[C@@H](CCCCN)C(=O)NCC(=O)N[C@@H](CCCCN)C(=O)N[C@@H](CCCCN)C(=O)N[C@@H](CC(N)=O)C(=O)N[C@@H](CC(=O)O)C(=O)N[C@@H](Cc1c[nH]c2ccccc12)C(=O)N[C@@H](CCCCN)C(=O)N[C@@H](Cc1c[nH]cn1)C(=O)N[C@@H](CC(N)=O)C(=O)N[C@H](C(=O)N[C@H](C(=O)N[C@@H](CCC(N)=O)C(=O)O)[C@@H](C)O)[C@@H](C)CC)C(C)C)[C@@H](C)CC` [Example 69, (Tic^3, Aib^13, Nle^14)hGIP(1-42)-OH], the half-life at 0.1 mg/ml is 36.9 h in data set [1] and 1.8 h in data set [2].

Take `CCCC[C@H](NC(=O)C(C)(C)NC(=O)[C@@H](NC(=O)[C@H](CO)NC(=O)[C@H](Cc1ccc(O)cc1)NC(=O)[C@H](CC(=O)O)NC(=O)[C@H](CO)NC(=O)[C@@H](NC(=O)[C@H](Cc1ccccc1)NC(=O)[C@@H](NC(=O)CNC(=O)[C@@H]1C(O)CCN1C(=O)[C@H](C)NC(=O)[C@@H](N)Cc1ccc(O)cc1)[C@@H](C)O)[C@@H](C)CC)[C@@H](C)CC)C(=O)N[C@@H](CC(=O)O)C(=O)N[C@@H](CCCCN)C(=O)N[C@H](C(=O)N[C@@H](Cc1c[nH]cn1)C(=O)N[C@@H](CCC(N)=O)C(=O)N[C@@H](CCC(N)=O)C(=O)N[C@@H](CC(=O)O)C(=O)N[C@@H](Cc1ccccc1)C(=O)N[C@H](C(=O)N[C@@H](CC(N)=O)C(=O)N[C@@H](Cc1c[nH]c2ccccc12)C(=O)N[C@@H](CC(C)C)C(=O)N[C@@H](CC(C)C)C(=O)N[C@@H](C)C(=O)N[C@@H](CCC(N)=O)C(=O)N[C@@H](CCCCN)C(=O)NCC(=O)N[C@@H](CCCCN)C(=O)N[C@@H](CCCCN)C(=O)N[C@@H](CC(N)=O)C(=O)N[C@@H](CC(=O)O)C(=O)N[C@@H](Cc1c[nH]c2ccccc12)C(=O)N[C@@H](CCCCN)C(=O)N[C@@H](Cc1c[nH]cn1)C(=O)N[C@@H](CC(N)=O)C(=O)N[C@H](C(=O)N[C@H](C(=O)N[C@@H](CCC(N)=O)C(=O)O)[C@@H](C)O)[C@@H](C)CC)C(C)C)[C@@H](C)CC` (stereo partly drawn) [Example 70, (3Hyp^3, Aib^13, Nle^14)hGIP(1-42)-OH]: the half-life at 0.1 mg/ml was greater than 33 h in data set [1] and 1.5 h in data set [2].

Turning to `CC[C@H](C)[C@H](NC(=O)[C@H](CO)NC(=O)[C@H](Cc1ccc(O)cc1)NC(=O)[C@H](CC(=O)O)NC(=O)[C@H](CO)NC(=O)[C@@H](NC(=O)[C@H](Cc1ccccc1)NC(=O)[C@@H](NC(=O)CNC(=O)[C@@H]1Cc2ccccc2CN1C(=O)[C@H](C)NC(=O)[C@@H](N)Cc1ccc(O)cc1)[C@@H](C)O)[C@@H](C)CC)C(=O)N[C@@H](C)C(=O)NC1(C(=O)N[C@@H](CC(=O)O)C(=O)N[C@@H](CCCCN)C(=O)N[C@H](C(=O)N[C@@H](Cc2c[nH]cn2)C(=O)N[C@@H](CCC(N)=O)C(=O)N[C@@H](CCC(N)=O)C(=O)N[C@@H](CC(=O)O)C(=O)N[C@@H](Cc2ccccc2)C(=O)N[C@H](C(=O)N[C@@H](CC(N)=O)C(=O)N[C@@H](Cc2c[nH]c3ccccc23)C(=O)N[C@@H](CC(C)C)C(=O)N[C@@H](CC(C)C)C(=O)N[C@@H](C)C(=O)N[C@@H](CCC(N)=O)C(=O)N[C@@H](CCCCN)C(=O)NCC(=O)N[C@@H](CCCCN)C(=O)N[C@@H](CCCCN)C(=O)N[C@@H](CC(N)=O)C(=O)N[C@@H](CC(=O)O)C(=O)N[C@@H](Cc2c[nH]c3ccccc23)C(=O)N[C@@H](CCCCN)C(=O)N[C@@H](Cc2c[nH]cn2)C(=O)N[C@@H](CC(N)=O)C(=O)N[C@H](C(=O)N[C@H](C(=O)N[C@@H](CCC(N)=O)C(=O)O)[C@@H](C)O)[C@@H](C)CC)C(C)C)[C@@H](C)CC)CCCCC1` [Example 71, (Tic^3, A6c^14)hGIP(1-42)-OH], the figures for the half-life at 0.1 mg/ml in data set [1] and in data set [2] were greater than 31 h and 4.8 h, respectively.

Take `CC[C@H](C)[C@H](NC(=O)[C@H](CO)NC(=O)[C@H](Cc1ccc(O)cc1)NC(=O)[C@H](CC(=O)O)NC(=O)[C@H](CO)NC(=O)[C@@H](NC(=O)[C@H](Cc1ccccc1)NC(=O)[C@@H](NC(=O)CNC(=O)[C@@H]1CCCCN1C(=O)[C@H](C)NC(=O)[C@@H](N)Cc1ccc(O)cc1)[C@@H](C)O)[C@@H](C)CC)C(=O)N[C@@H](C)C(=O)NC1(C(=O)N[C@@H](CC(=O)O)C(=O)N[C@@H](CCCCN)C(=O)N[C@H](C(=O)N[C@@H](Cc2c[nH]cn2)C(=O)N[C@@H](CCC(N)=O)C(=O)N[C@@H](CCC(N)=O)C(=O)N[C@@H](CC(=O)O)C(=O)N[C@@H](Cc2ccccc2)C(=O)N[C@H](C(=O)N[C@@H](CC(N)=O)C(=O)N[C@@H](Cc2c[nH]c3ccccc23)C(=O)N[C@@H](CC(C)C)C(=O)N[C@@H](CC(C)C)C(=O)N[C@@H](C)C(=O)N[C@@H](CCC(N)=O)C(=O)N[C@@H](CCCCN)C(=O)NCC(=O)N[C@@H](CCCCN)C(=O)N[C@@H](CCCCN)C(=O)N[C@@H](CC(N)=O)C(=O)N[C@@H](CC(=O)O)C(=O)N[C@@H](Cc2c[nH]c3ccccc23)C(=O)N[C@@H](CCCCN)C(=O)N[C@@H](Cc2c[nH]cn2)C(=O)N[C@@H](CC(N)=O)C(=O)N[C@H](C(=O)N[C@H](C(=O)N[C@@H](CCC(N)=O)C(=O)O)[C@@H](C)O)[C@@H](C)CC)C(C)C)[C@@H](C)CC)CCCCC1` [Example 72, (hPro^3, A6c^14)hGIP(1-42)-OH]: the half-life at 0.1 mg/ml was 10.7 h in data set [1] and 0.45 h in data set [2].

On to `CC[C@H](C)[C@H](NC(=O)[C@H](CCCCN)NC(=O)[C@H](CC(=O)O)NC(=O)[C@H](CCSC)NC(=O)[C@H](C)NC(=O)[C@@H](NC(=O)C1(NC(=O)[C@H](Cc2ccc(O)cc2)NC(=O)[C@H](CC(=O)O)NC(=O)[C@H](CO)NC(=O)[C@@H](NC(=O)[C@H](Cc2ccccc2)NC(=O)[C@@H](NC(=O)CNC(=O)[C@@H]2CCCCN2C(=O)[C@H](C)NC(=O)[C@@H](N)Cc2ccc(O)cc2)[C@@H](C)O)[C@@H](C)CC)CCCC1)[C@@H](C)CC)C(=O)N[C@@H](Cc1c[nH]cn1)C(=O)N[C@@H](CCC(N)=O)C(=O)N[C@@H](CCC(N)=O)C(=O)N[C@@H](CC(=O)O)C(=O)N[C@@H](Cc1ccccc1)C(=O)N[C@H](C(=O)N[C@@H](CC(N)=O)C(=O)N[C@@H](Cc1c[nH]c2ccccc12)C(=O)N[C@@H](CC(C)C)C(=O)N[C@@H](CC(C)C)C(=O)N[C@@H](C)C(=O)N[C@@H](CCC(N)=O)C(=O)N[C@@H](CCCCN)C(=O)NCC(=O)N[C@@H](CCCCN)C(=O)N[C@@H](CCCCN)C(=O)N[C@@H](CC(N)=O)C(=O)N[C@@H](CC(=O)O)C(=O)N[C@@H](Cc1c[nH]c2ccccc12)C(=O)N[C@@H](CCCCN)C(=O)N[C@@H](Cc1c[nH]cn1)C(=O)N[C@@H](CC(N)=O)C(=O)N[C@H](C(=O)N[C@H](C(=O)N[C@@H](CCC(N)=O)C(=O)O)[C@@H](C)O)[C@@H](C)CC)C(C)C` [Example 74, (hPro^3, A5c^11)hGIP(1-42)-OH], for which the half-life at 0.1 mg/ml in data set [1] was 16.3 h; in data set [2] it was 1.3 h.

As to `CC[C@H](C)[C@H](NC(=O)[C@H](CO)NC(=O)[C@H](Cc1ccc(O)cc1)NC(=O)[C@H](CC(=O)O)NC(=O)[C@H](CO)NC(=O)C1(NC(=O)[C@H](Cc2ccccc2)NC(=O)[C@@H](NC(=O)CNC(=O)[C@@H]2CCCN2C(=O)[C@H](C)NC(=O)[C@@H](N)Cc2ccc(O)cc2)[C@@H](C)O)CCCC1)C(=O)N[C@@H](C)C(=O)NC1(C(=O)N[C@@H](CC(=O)O)C(=O)N[C@@H](CCCCN)C(=O)N[C@H](C(=O)N[C@@H](Cc2c[nH]cn2)C(=O)N[C@@H](CCC(N)=O)C(=O)N[C@@H](CCC(N)=O)C(=O)N[C@@H](CC(=O)O)C(=O)N[C@@H](Cc2ccccc2)C(=O)N[C@H](C(=O)N[C@@H](CC(N)=O)C(=O)N[C@@H](Cc2c[nH]c3ccccc23)C(=O)N[C@@H](CC(C)C)C(=O)N[C@@H](CC(C)C)C(=O)N[C@@H](C)C(=O)N[C@@H](CCC(N)=O)C(=O)N[C@@H](CCCCN)C(=O)NCC(=O)N[C@@H](CCCCN)C(=O)N[C@@H](CCCCN)C(=O)N[C@@H](CC(N)=O)C(=O)N[C@@H](CC(=O)O)C(=O)N[C@@H](Cc2c[nH]c3ccccc23)C(=O)N[C@@H](CCCCN)C(=O)N[C@@H](Cc2c[nH]cn2)C(=O)N[C@@H](CC(N)=O)C(=O)N[C@H](C(=O)N[C@H](C(=O)N[C@@H](CCC(N)=O)C(=O)O)[C@@H](C)O)[C@@H](C)CC)C(C)C)[C@@H](C)CC)CCCC1` [Example 76, (Pro^3, A5c^7, 14)hGIP(1-42)-OH], the half-life at 0.1 mg/ml in data set [1] is 55.9 h; in data set [2], 1 h.
